Earlier results, collected in patent US7316771B2, “Medium for analytic and preparative electrophoresis” (Becton, Dickinson and Company, priority 2000, dated 2008).
Values joined by “and” are separate entries in the source; they are usually repeats but may differ in a detail not shown here. Equal entries are not always repeated.

Conditions: substance used as acid in the medium
For `Oc1ccccn1` [2-Hydroxy-Pyridine], the “pKa (Acid)” value is listed as 11.8. In the case of `Oc1ccncc1` [4-Hydroxy-Pyridine], the “pKa (Acid)” value is given as 11.2. In the case of `CC(C)C(=O)O` [Isobutyric Acid], the “pKa (Acid)” value is given as 4.5. In the case of `O=C(O)c1ccccn1` [Picolinic Acid], the “pKa (Acid)” value is given as 5.5.

Same assay, conditions: substance used as acid in the medium; listed as 2-hydroxy pyridine
In the case of `Oc1ccccn1` [2-Hydroxy-Pyridine], the “pKa (Acid)” value is listed as 11.6.

Same assay, conditions: substance used as base in the medium
For `CCC(N)C(=O)O` (centres unmarked) [2-Amino Butyric Acid], the “pKa (Base)” value is given as 2.3 and 2.2. In the case of `C[N+](C)(C)CC(=O)O` [Betaine], the “pKa (Base)” value is listed as 1.8. In the case of `CN(CC(=O)O)C(=N)N` [Creatine], the “pKa (Base)” value is listed as 2.7. For `CN1CC(=O)NC1=N` [Creatinine], the “pKa (Base)” value is listed as 4.8. In the case of `NCC(=O)NCC(=O)O` [Glycyl Glycine], the “pKa (Base)” value is given as 3.1. For `NC(=O)c1cccnc1` [Nicotinic Acid Amide], the “pKa (Base)” value is listed as 3.1.
